Patent US8623859B2, “Bradykinin B1 antagonists” (Evotec AG, priority 2008, dated 2014)
Where a name gives a salt, the structure may show the parent alone.

Biological target: T1, human B1 (Homo sapiens, UniProt P46663)
T1 construct: host or cells: CHO-K1
T1 sequence (P46663 1-353): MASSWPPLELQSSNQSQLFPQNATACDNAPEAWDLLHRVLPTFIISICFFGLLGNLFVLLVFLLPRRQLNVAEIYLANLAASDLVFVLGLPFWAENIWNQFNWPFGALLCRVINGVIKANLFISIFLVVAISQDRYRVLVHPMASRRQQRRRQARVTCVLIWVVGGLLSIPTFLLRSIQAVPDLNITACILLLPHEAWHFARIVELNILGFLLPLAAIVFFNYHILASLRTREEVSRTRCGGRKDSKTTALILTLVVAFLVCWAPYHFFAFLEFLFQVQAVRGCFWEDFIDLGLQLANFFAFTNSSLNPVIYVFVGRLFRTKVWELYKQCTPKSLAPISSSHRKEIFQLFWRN
Experiment: Calcium flux assay for Bradykinin B1 antagonist, CHO-K1 cell line expressing human B1
Assay type: cell-based
Conditions: CHO-K1 cells expressing human B1, agonist Lys-(Des-Arg)-Bradykinin, read-out: Potency (IC50 value against human B1)
Method in brief: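 Inhibition of B1 agonist-evoked intracellular Ca2+ rise was followed by continuous fluorescence at 538 nm, with integrated, background-normalized signals plotted versus log compound concentration. Test compounds (eight 10-fold dilutions, triplicate, 1% DMSO final) were added 30 min at 25° C beforehand to Fluo-4AM-loaded human B1 CHO-K1 cells in pH 7.4 assay buffer.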

In the case of `COc1cc(C)c(S(=O)(=O)N(C)Cc2noc(C(=O)N(C)Cc3ccc(CN4CCCC4)cc3)n2)c(C)c1` [Ex 300, 3-({[(4-Methoxy-2,6-dimethylphenyl)sulfonyl](methyl)amino}methyl)-N-methyl-N-[4-(pyrrolidin-1-ylmethyl)benzyl]-1,2,4-oxadiazole-5-carboxamide trifluoroacetamide], the IC50 is reported as less than 10 nM.
Molecule `COc1cc(C)c(S(=O)(=O)N(C)Cc2nnc(C(=O)N(C)Cc3ccc(CN4CCCC4)cc3)s2)c(C)c1` [Ex 329, 5-({[(4-Methoxy-2,6-dimethylphenyl)sulfonyl](methyl)amino}methyl)-N-methyl-N-[4-(pyrrolidin-1-ylmethyl)benzyl]-1,3,4-thiadiazole-2-carboxamide] has an IC50 of 100 to 1000 nM.
With `COc1cc(C)c(S(=O)(=O)N(C)Cc2nnc(C(=O)NCCc3ccc(C4=NCCN4)cc3)o2)c(C)c1` [Ex 269, N-{2-[4-(4,5-Dihydro-1H-imidazol-2-yl)phenyl]ethyl}-5-({[(4-methoxy-2,6-dimethylphenyl)sulfonyl](methyl)amino}methyl)-1,3,4-oxadiazole-2-carboxamide trifluoroacetate] the IC50 was less than 10 nM.
For `COc1cc(C)c(S(=O)(=O)N(Cc2nc(C(=O)N3CCN(Cc4ccc(N5CCCC5)nc4)CC3)co2)C2CC2)c(C)c1` [Ex 237, N-Cyclopropyl-4-methoxy-2,6-dimethyl-N-{[4-({4-[(6-pyrrolidin-1-ylpyridin-3-yl)methyl]piperazin-1-yl}carbonyl)-1,3-oxazol-2-yl]methyl}benzenesulfonamide trifluoroacetate], the IC50 was less than 10 nM.
Molecule `COc1cc(C)c(S(=O)(=O)N(C)Cc2nnc(C(=O)N3CCN(CC4CCN(CC(C)(C)O)CC4)CC3)o2)c(C)c1` [Ex 266, N-({5-[(4-{[1-(2-Hydroxy-2-methylpropyl)piperidin-4-yl]methyl}piperazin-1-yl)carbonyl]-1,3,4-oxadiazol-2-yl}methyl)-4-methoxy-N,2,6-trimethylbenzenesulfonamide] has an IC50 of 100 to 1000 nM.
`COc1cc(C)c(S(=O)(=O)N(C)Cc2cc(C(=O)NCCc3ccc(CN4CCCC4)cc3)co2)c(C)c1` [Ex 46, 5-({[(4-methoxy-2,6-dimethylphenyl)sulfonyl](methyl)amino}methyl)-N-{2-[4-(pyrrolidin-1-ylmethyl)phenyl]ethyl}furan-3-carboxamide] showed an IC50 of 100 to 1000 nM.
`COc1cc(C)c(S(=O)(=O)N(Cc2noc(C(=O)N(C)Cc3nnc(CN4CCCC4)s3)n2)C2CC2)c(C)c1` [Ex 313, 3-({Cyclopropyl[(4-methoxy-2,6-dimethylphenyl)sulfonyl]amino}methyl)-N-methyl-N-{[5-(pyrrolidin-1-ylmethyl)-1,3,4-thiadiazol-2-yl]methyl}-1,2,4-oxadiazole-5-carboxamide] gave an IC50 of less than 10 nM.
With `COc1cc(C)c(S(=O)(=O)N(C)Cc2cc(C(=O)N3CCN(CCN4CCOCC4)CC3)co2)c(C)c1` [Ex 35, 4-methoxy-N,2,6-trimethyl-N-[(4-{[4-(2-morpholin-4-ylethyl)piperazin-1-yl]carbonyl}furan-2-yl)methyl]benzenesulfonamide] the IC50 was 100 to 1000 nM.
`COc1cc(C)c(S(=O)(=O)N(C)Cc2nc(C(=O)N(C)Cc3ccc(CN4CCCC(OC)C4)cc3)co2)c(C)c1` (centres unmarked) [Ex 168, 2-({[(4-Methoxy-2,6-dimethylphenyl)sulfonyl](methyl)amino}methyl)-N-{4-[(3-methoxypiperidin-1-yl)methyl]benzyl}-N-methyl-1,3-oxazole-4-carboxamide] showed an IC50 of 10 to 100 nM.
For `COc1cc(C)c(S(=O)(=O)N(C)Cc2noc(C(=O)N3CCN(C4CCN(C)CC4)CC3)n2)c(C)c1` [Ex 302, 4-Methoxy-N,2,6-trimethyl-N-[(5-{[4-(1-methylpiperidin-4-yl)piperazin-1-yl]carbonyl}-1,2,4-oxadiazol-3-yl)methyl]benzenesulfonamide trifluoroacetate], the IC50 was 100 to 1000 nM.
`COc1cc(C)c(S(=O)(=O)N(C)Cc2noc(C(=O)N3CCN(CC4CCN(C)CC4)CC3)n2)c(C)c1` [Ex 305, 4-Methoxy-N,2,6-trimethyl-N-{[5-({4-[(1-methylpiperidin-4-yl)methyl]piperazin-1-yl}carbonyl)-1,2,4-oxadiazol-3-yl]methyl}benzenesulfonamide trifluoroacetate] showed an IC50 of less than 10 nM.
